Drawing on the Kinase Knowledgebase extract (Sharma et al. 2016), this text covers IC50 for 16 compounds.

A word on the IC50: it is the concentration that gives 50% inhibition. A higher IC50 goes with weaker potency in that assay.

Sequence of EGFR (human) (P00533 whole entry, looked up): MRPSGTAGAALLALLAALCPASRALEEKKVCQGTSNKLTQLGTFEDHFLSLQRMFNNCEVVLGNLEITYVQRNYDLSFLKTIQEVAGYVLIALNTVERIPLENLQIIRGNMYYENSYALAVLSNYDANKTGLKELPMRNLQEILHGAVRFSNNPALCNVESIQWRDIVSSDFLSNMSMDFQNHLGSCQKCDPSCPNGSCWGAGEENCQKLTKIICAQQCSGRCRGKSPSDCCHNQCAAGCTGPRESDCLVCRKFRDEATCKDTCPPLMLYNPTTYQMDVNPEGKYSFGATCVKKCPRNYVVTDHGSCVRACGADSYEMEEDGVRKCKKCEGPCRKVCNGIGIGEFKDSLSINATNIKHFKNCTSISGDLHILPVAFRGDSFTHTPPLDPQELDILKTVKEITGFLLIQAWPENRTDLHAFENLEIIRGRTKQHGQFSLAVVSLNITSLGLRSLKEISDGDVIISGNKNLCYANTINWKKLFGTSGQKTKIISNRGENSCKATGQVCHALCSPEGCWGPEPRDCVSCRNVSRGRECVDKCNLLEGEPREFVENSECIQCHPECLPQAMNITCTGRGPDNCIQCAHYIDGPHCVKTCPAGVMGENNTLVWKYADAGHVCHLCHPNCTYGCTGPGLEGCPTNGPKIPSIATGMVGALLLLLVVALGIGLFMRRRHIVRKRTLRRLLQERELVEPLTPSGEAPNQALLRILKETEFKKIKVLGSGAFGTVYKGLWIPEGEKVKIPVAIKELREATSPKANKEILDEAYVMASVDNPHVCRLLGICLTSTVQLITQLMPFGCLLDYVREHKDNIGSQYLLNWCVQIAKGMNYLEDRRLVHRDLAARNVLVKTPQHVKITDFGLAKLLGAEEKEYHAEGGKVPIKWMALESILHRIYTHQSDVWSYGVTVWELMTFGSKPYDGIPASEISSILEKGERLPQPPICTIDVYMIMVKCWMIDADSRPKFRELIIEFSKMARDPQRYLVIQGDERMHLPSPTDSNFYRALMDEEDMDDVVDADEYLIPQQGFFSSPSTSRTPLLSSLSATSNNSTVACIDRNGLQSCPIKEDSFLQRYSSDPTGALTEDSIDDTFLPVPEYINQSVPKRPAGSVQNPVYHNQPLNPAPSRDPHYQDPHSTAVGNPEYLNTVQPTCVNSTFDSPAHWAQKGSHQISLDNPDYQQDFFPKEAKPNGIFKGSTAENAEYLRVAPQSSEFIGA

The assay addresses EGFR (human) (UniProt P00533). The conditions noted are these: huvec.
In the case of `COc1cc2c(Nc3c(F)cc(Cl)cc3F)ncnc2cc1OCC1CCNCC1`, the IC50 came to 600 nM. This counts as sub-micromolar.
In the case of `COc1cc2c(Nc3cc(O)c(C)cc3F)ncnc2cc1OCC1CCN(C)CC1`, the IC50 is 200 nM. Compared with the last compound, the IC50 is about 3-fold lower.
The figure for `COc1cc2c(Nc3ccc(Cl)cc3F)ncnc2cc1OCCCN1CCN(C)CC1` is 100 nM.
Turning to `COc1cc2c(Nc3ccc(C)cc3F)ncnc2cc1OCC1CCNCC1`, the IC50 worked out at 450 nM.
As for `COc1cc2c(Nc3ccc(Cl)cc3F)ncnc2cc1OC[C@@H]1CCCN(C)C1`, the IC50 was found to be 150 nM.
Compound `COc1cc2c(Nc3ccc(Br)cc3F)ncnc2cc1OCCCN1CCN(C)CC1` had an IC50 of 90 nM.
The figure for `COc1cc2c(Nc3cc(O)c(Cl)cc3F)ncnc2cc1OCC1CCN(C)CC1` is 70 nM; for `COc1cc2c(Nc3ccc(Cl)cc3F)ncnc2cc1OCC1CCNCC1` it is 100 nM; for `COc1cc2c(Nc3ccc(Br)cc3F)ncnc2cc1OC/C=C/CN1CCCC1` it is 90 nM.
As for `COc1cc2c(Nc3ccc(C#N)cc3F)ncnc2cc1OC/C=C/CN1CCCC1`, the IC50 was found to be 1400 nM.
To `COc1cc2c(Nc3ccc(Cl)cc3F)ncnc2cc1OCCC1CCN(C)CC1` belongs 200 nM; to `COc1cc2c(Nc3ccc(Cl)cc3F)ncnc2cc1OC/C=C/CN1CCCC1`, 80 nM.
Turning to `COc1cc2c(Nc3ccc(Br)cc3F)ncnc2cc1OCC1CCNCC1`, the 50% inhibitory concentration (IC50) worked out at 100 nM. The IC50 values of the last two compounds are within 1.5-fold of each other.
`COc1cc2c(Nc3c(F)cc(Br)cc3F)ncnc2cc1OCC1CCNCC1` yielded an IC50 of 400 nM.
Compound `COc1cc2c(Nc3ccc(C)cc3F)ncnc2cc1OCC1CCN(C)CC1` had an IC50 of 400 nM.
As for `COc1cc2c(Nc3c(F)cc(Br)cc3F)ncnc2cc1OCC1CCN(C)CC1`, the IC50 turned out to be 400 nM.
